Source: patent publication US9387231B2, “Compositions comprising a Brd4 antagonist and methods for the treatment of HIV” (THE CHILDREN'S HOSPITAL OF PHILADELPHIA, priority 2011, dated 2016)

System: RNA polymerase II binding to the HIV LTR
Assay: Chromatin immunoprecipitation (ChIP) of HIV LTR DNA, RNA polymerase II
Assay type: cell-based
Conditions: CEMss LTR-GFP cells infected with HIV NL4-3, days 3 to 5, compared to JQ1(−), p<0.001
Method: FIGS. 7A and 7B show the fold increase in the binding of IgG, RNA polymerase II, or Cdk9 to the HIV LTR in the presence of JQ1(+) or JQ1(−) for early (FIG. 7A) and late (FIG. 7B) HIV-1 transcript. ***p<0.001.
To further investigate the mechanism of JQ1(+) reactivation of HIV transcription in latently infected T-cells, the binding of RNA polymerase II (PoI II) and p-TEFb (Cdk9/Cyclin T) to the promoter region of HIV LTR was measured using chromatin immunoprecipitation (ChIP). A CEMss reporter cell line stably transfected with GFP under the control of the HIV LTR promoter was used. CEMss LTR-GFP cells were infected with HIV NL4-3 in the presence of JQ1(+) or JQ1(−). At days 3 to 5 of infection, cells were collected and sheared, and formaldehyde cross-linked chromatin extracts were immunoprecipitated with antibodies specific for IgG, RNA polymerase II, or Cdk9. The abundance of HIV LTR DNA in immunoprecipitates was assessed by qPCR with two sets of primers specific for early or late regions of the HIV LTR.

Cc1sc2c(c1C)C(c1ccc(Cl)cc1)=N[C@@H](CC(=O)OC(C)(C)C)c1nnc(C)n1-2 [JQ1(+), tert-butyl 2-((6S)-4-(4-chlorophenyl)-2,3,9-trimethyl-6H-thieno[3,2-f][1,2,4]triazolo[4,3-a][1,4]diazepin-6-yl)acetate]
Binding of RNA Pol II to the HIV LTR: significantly increased
